According to US10238758B2, “Radiolabeled alpha-melanocyte stimulating hormone hybrid peptide for melanoma targeting” (STC.UNM, priority 2011, dated 2019):
Entries after “also recorded” stand apart in the source; their conditions may differ. Positions of bridges follow the written chain, without caps; N, C: chain ends. Non-standard residues stand in square brackets, D forms with d. Residues, ends and D or L forms follow the SMILES beside them.

Experiments:
[1] = target: T1, MC1 receptor (Homo sapiens, UniProt Q01726); conditions: M21 melanoma cells, cited from earlier work
T1 construct: Both MC1 and αvβ3 integrin receptors are over-expressed in M21 melanoma cells [23]; endogenous in cells; host or cells: M21 human melanoma cells
T1 sequence (Q01726 whole entry): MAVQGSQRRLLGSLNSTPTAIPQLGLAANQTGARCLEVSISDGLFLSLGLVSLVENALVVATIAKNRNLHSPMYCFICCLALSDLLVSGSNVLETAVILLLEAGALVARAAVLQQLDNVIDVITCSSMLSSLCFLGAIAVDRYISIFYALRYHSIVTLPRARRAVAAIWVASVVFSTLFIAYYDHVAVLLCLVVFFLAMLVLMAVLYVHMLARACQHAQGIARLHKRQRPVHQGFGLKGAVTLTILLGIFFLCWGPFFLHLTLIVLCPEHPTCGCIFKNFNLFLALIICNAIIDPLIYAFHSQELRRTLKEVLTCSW

[2] = target: T2, αvβ3 integrin receptor (Homo sapiens, UniProt P05106+P06756); conditions: M21 melanoma cells, vs RGD-Lys-(Arg11)CCMSH; cited from earlier work
T2 construct: Both MC1 and αvβ3 integrin receptors are over-expressed in M21 melanoma cells [23]; endogenous in cells; host or cells: M21 human melanoma cells
T2 sequence (P06756 31-889 limits assumed): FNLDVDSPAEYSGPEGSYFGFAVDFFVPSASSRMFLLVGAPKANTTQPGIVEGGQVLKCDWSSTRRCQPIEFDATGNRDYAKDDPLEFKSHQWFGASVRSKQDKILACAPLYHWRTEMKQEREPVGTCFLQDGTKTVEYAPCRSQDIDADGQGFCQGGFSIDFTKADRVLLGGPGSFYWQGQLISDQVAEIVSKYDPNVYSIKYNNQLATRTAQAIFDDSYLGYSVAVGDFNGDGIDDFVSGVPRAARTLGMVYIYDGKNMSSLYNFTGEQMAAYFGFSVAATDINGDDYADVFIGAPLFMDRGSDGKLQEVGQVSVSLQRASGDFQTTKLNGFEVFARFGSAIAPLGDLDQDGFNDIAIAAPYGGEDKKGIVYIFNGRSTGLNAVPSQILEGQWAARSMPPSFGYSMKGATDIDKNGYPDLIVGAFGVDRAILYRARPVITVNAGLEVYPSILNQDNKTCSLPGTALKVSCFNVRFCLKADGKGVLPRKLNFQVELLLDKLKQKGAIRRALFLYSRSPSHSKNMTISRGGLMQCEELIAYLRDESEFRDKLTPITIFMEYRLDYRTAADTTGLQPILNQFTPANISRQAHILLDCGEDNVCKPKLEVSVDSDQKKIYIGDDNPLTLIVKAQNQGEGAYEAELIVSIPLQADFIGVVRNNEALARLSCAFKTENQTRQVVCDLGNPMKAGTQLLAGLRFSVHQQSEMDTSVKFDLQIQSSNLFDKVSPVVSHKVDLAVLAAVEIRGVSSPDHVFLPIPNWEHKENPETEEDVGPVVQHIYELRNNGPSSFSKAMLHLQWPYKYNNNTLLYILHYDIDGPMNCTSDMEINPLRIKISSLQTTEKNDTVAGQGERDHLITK
T2 sequence (P06756 891-1048 limits assumed): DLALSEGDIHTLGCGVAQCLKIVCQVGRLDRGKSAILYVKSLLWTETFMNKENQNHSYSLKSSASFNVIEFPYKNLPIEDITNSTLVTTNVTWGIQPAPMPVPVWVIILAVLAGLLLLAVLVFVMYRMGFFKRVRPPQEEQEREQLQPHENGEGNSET
T2 sequence (P05106 27-788): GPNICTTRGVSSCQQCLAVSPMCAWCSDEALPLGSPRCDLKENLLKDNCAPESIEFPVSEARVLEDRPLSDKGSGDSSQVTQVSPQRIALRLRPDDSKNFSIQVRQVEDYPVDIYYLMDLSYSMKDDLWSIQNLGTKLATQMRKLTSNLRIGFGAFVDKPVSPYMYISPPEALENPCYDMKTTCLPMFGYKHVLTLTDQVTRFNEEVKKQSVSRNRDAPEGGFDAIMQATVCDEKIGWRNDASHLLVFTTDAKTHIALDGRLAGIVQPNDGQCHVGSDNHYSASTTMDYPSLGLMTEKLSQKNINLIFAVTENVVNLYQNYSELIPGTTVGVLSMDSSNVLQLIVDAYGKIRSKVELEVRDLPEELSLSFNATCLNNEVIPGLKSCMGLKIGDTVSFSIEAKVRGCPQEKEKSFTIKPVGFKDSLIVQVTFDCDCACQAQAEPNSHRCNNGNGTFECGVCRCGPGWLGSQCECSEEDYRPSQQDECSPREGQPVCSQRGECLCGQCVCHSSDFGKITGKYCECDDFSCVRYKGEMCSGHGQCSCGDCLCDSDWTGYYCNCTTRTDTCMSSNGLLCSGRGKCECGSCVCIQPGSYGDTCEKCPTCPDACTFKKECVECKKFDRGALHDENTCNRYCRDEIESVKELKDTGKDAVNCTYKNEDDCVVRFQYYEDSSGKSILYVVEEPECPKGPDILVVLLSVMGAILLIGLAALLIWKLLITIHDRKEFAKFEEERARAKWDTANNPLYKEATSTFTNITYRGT

[3] = target: T3, MC1 receptor (Mus musculus, UniProt Q01727); assay: MC1 receptor competitive binding with 125I-(Tyr2)-NDP-MSH in B16/F1 melanoma cells; design: species or system murine
T3 construct: host or cells: B16/F1 murine melanoma cells
T3 sequence (Q01727 whole entry): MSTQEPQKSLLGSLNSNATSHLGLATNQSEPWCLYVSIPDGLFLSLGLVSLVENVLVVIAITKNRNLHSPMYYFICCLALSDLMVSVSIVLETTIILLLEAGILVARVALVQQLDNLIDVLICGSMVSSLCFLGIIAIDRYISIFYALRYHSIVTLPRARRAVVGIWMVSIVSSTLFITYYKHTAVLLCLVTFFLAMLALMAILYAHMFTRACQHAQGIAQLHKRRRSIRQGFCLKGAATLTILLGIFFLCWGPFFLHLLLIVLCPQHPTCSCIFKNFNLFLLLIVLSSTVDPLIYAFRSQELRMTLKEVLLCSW
Text: Amino acid and resin were purchased from Advanced ChemTech Inc. (Louisville, Ky.) and Novabiochem (San Diego, Calif.). ^125I-Tyr^2-[Nle^4, DPhe^7]-α-MSH {^125I-(Tyr^2)-NDP-MSH} was obtained from PerkinElmer, Inc. (Shelton, Conn.) for MC1 receptor binding assay. ^99mTcO4^− was purchased from Cardinal Health (Albuquerque, N. Mex.) for peptide radiolabeling. All other chemicals used in this study were purchased from Thermo Fisher Scientific (Waltham, Mass.) and used without further purification. B16/F1 murine melanoma cells were obtained from American Type Culture Collection (Manassas, Va.).
The RAD-Lys-(Arg^11)CCMSH was synthesized according to our published procedure, purified by reverse phase-high performance liquid chromatography (RP-HPLC) and characterized by LC-mass spectroscopy. The IC50 value of RAD-Lys-(Arg^11)CCMSH for the MC1 receptor was determined in B16/F1 melanoma cells. Briefly, the B16/F1 cells were harvested and seeded into a 24-well cell culture plate (0.2×10^6 cells/well) and incubated at 37° C. overnight. […] The radioactivities associated with cells were measured in a Wallac 1480 automated gamma counter (PerkinElmer, NJ). The IC50 value of RAD-Lys-(Arg^11)CCMSH was calculated using the Prism software (GraphPad Software, La Jolla, Calif.).

[4] = test system: B16/F1 melanoma cells; assay: Cellular internalization and efflux in B16/F1 melanoma cells; format: cell-based, murine; conditions: for activity internalized: 25° C.
Method: RAD-Lys-(Arg^11)CCMSH was radiolabeled with ^99mTc using the method described previously. The radiolabeled peptide was purified to single species by Waters RP-HPLC (Milford, Mass.) on a Grace Vydac C-18 reverse phase analytic column (Deerfield, Ill.) using a 20 min gradient of 16-26% acetonitrile in 20 mM HCl aqueous solution at a flow rate of 1 mL/min. Cellular internalization and efflux of ^99mTc-RAD-Lys-(Arg^11)CCMSH were evaluated in B16/F1 melanoma cells. Briefly, the B16/F1 cells in 24-well cell culture plates were incubated at 25° C. for 20, 40, 60, 90 and 120 min (n=4) in the presence of approximately 200,000 cpm of HPLC purified ^99mTc-RAD-Lys-(Arg^11)CCMSH. After incubation, the reaction medium was aspirated and the cells were rinsed twice with 0.5 mL of ice-cold pH 7.4, 0.2% BSA/0.01 M PBS. Cellular internalization of ^99mTc-RAD-Lys-(Arg^11) CCMSH was assessed by washing the cells with acidic buffer [40 mM sodium acetate (pH 4.5) containing 0.9% NaCl and 0.2% BSA] to remove the membrane-bound radioactivity. The remaining internalized radioactivity was obtained by lysing the cells with 0.5 mL of 1 N NaOH for 5 min. Membrane-bound and internalized ^99mTc activities were counted in a gamma counter. Cellular efflux of ^99mTc-RAD-Lys-(Arg^11)CCMSH was determined by incubating the B16/F1 cells with ^99mTc-RAD-Lys-(Arg^11)CCMSH for 2 h at 25° C., removing non-specific-bound radioactivity with 2×0.5 mL of ice-cold pH 7.4, 0.2% BSA/0.01 M PBS rinse, and monitoring radioactivity released into cell culture medium. At time points of 20, 40, 60, 90 and 120 min, the radioactivities in medium, on cell surface and in cells were separately collected and counted in a gamma counter.

[5] = test system: B16/F1 melanoma-bearing C57 mice; assay: Biodistribution in B16/F1 melanoma-bearing C57 mice; format: in vivo
Method: All the animal studies were conducted in compliance with Institutional Animal Care and Use Committee approval. The biodistribution of ^99mTc-RAD-Lys-(Arg^11)CCMSH was determined in B16/F1 melanoma-bearing C57 mice (Harlan, Indianapolis, Ind.). C57 mice were subcutaneously inoculated on the right flank with 1×10^6 B16/F1 cells. Tumor weights reached approximately 0.2 g at 10 days post cell inoculation. Each melanoma-bearing mouse was injected with 0.037 MBq of ^99mTc-RAD-Lys-(Arg^11)CCMSH via the tail vein. Groups of 5 mice were sacrificed at 0.5, 2, 4 and 24 h post-injection, and tumors and organs of interest were harvested, weighed and counted. Blood values were taken as 6.5% of the whole-body weight.
The specificity of tumor uptake was determined at 2 h post-injection by co-injecting ^99mTc-RAD-Lys-(Arg^11)CCMSH with 10 μg (6.1 nmol) of unlabeled NDP-MSH. L-lysine co-injection is effective in decreasing the renal uptake of radiolabeled α-MSH peptides. To determine the effect of L-lysine co-injection on the renal uptake of ^99mTc-RAD-Lys-(Arg^11)CCMSH, a group of 5 mice were injected with a mixture of 0.037 MBq of ^99mTc-RAD-Lys-(Arg^11)CCMSH and 12 mg of L-lysine. The mice were sacrificed at 2 h post-injection, and tumors and organs of interest were harvested, weighed and counted in a gamma counter.
Statistical analysis was performed using the Student's t-test for unpaired data to determine the significance of differences in tumor and kidney uptake between the groups in the biodistribution studies with/without peptide blockade or with/without L-lysine co-injection. Differences at the 95% confidence level (p<0.05) were considered significant.

[6] = test system: B16/F1 melanoma-bearing C57 mouse; assay: SPECT/CT melanoma imaging in a B16/F1 melanoma-bearing C57 mouse; format: in vivo; conditions: 2 h post-injection
Method: (§1) Approximately 6.7 MBq of ^99mTc-RAD-Lys-(Arg^11)CCMSH was injected in a B16/F1 melanoma-bearing C57 mouse for imaging and urine analysis. The mouse was euthanized at 2 h post-injection for small animal SPECT/CT (Nano-SPECT/CT®, Bioscan) imaging, as well as to collect urine for analyzing the metabolites. The 9-min CT imaging was immediately followed by the whole-body SPECT scan. The SPECT scans of 24 projections were acquired. Reconstructed SPECT and CT data were visualized and co-registered using InVivoScope (Bioscan, Washington D.C.). The collected urine sample was centrifuged at 16,000 g for 5 min before the HPLC analysis. Thereafter, aliquots of the urine were injected into the HPLC. A 20-minute gradient of 16-26% acetonitrile/20 mM HCl with a flow rate of 1 mL/min was used for urine analysis.

[7] = Urinary metabolites by HPLC in a B16/F1 melanoma-bearing C57 mouse; format: in vivo; conditions: 2 h post-injection
Method: as §1

Q: With `CC(C)[C@H](NC(=O)[C@@H]1CCCN1C(=O)[C@H](CCCNC(=N)N)NC(=O)[C@H](CS)NC(=O)[C@H](Cc1c[nH]c2ccccc12)NC(=O)[C@H](CCCNC(=N)N)NC(=O)[C@@H](Cc1ccccc1)NC(=O)[C@H](Cc1c[nH]cn1)NC(=O)[C@H](CCC(=O)O)NC(=O)[C@H](CS)NC(=O)[C@H](CS)NC(=O)[C@H](CCCCN)NC(=O)[C@@H]1CC(=O)N[C@@H](CCCNC(=N)N)C(=O)N[C@@H](C)C(=O)N[C@@H](CC(=O)O)C(=O)N[C@H](Cc2ccc(O)cc2)C(=O)N1)C(N)=O` [RAD-Lys-(Arg^11)CCMSH] (RAD[dY]DKCCEH[dF]RWCRPV-NH2; lactam N-5 (inferred)) as the molecule, how does the “increase of MC1 receptor binding affinity by switch from RGD to RAD” value ([1]; vs RGD-Lys-(Arg11)CCMSH) read?
A: 6.7 fold

Q: And the “decrease of αvβ3 integrin receptor binding affinity by switch from RGD to RAD” value [2]?
A: 248 fold

Q: For `CC(C)[C@H](NC(=O)[C@@H]1CCCN1C(=O)[C@H](CCCNC(=N)N)NC(=O)[C@H](CS)NC(=O)[C@H](Cc1c[nH]c2ccccc12)NC(=O)[C@H](CCCNC(=N)N)NC(=O)[C@@H](Cc1ccccc1)NC(=O)[C@H](Cc1c[nH]cn1)NC(=O)[C@H](CCC(=O)O)NC(=O)[C@H](CS)NC(=O)[C@H](CS)NC(=O)[C@H](CCCCN)NC(=O)[C@@H]1CC(=O)N[C@@H](CCCNC(=N)N)C(=O)N[C@@H](C)C(=O)N[C@@H](CC(=O)O)C(=O)N[C@H](Cc2ccc(O)cc2)C(=O)N1)C(N)=O` [^99mTc-RAD-Lys-(Arg^11)CCMSH, metal not drawn] (RAD[dY]DKCCEH[dF]RWCRPV-NH2; lactam N-5), which IC50 [3] is on record?
A: 0.26 nM

Q: And the activity internalized ([4]; 20 min post incubation)?
A: 59.20±5.10%

Q: What about the “cellular internalization and retention, in words” value ([4]; B16/F1 melanoma cells) of the same molecule?
A: rapid cellular internalization and extended cellular retention

Q: What about the activity internalized ([4]; after 2 h incubation) of the same molecule?
A: 78.24±1.13%

Q: What about the “tumor uptake with NDP-MSH co-injection as % of tumor uptake without” value ([5]; 10 μg (6.1 nmol) non-radiolabeled NDP-MSH co-injection, 2 h post-injection, p<0.01) of the same molecule?
A: 7.8%

Q: And the “liver uptake as % of liver uptake of 99mTc-RGD-Lys-(Arg11)CCMSH” value (from here on “liver uptake as %”) ([5]; 0.5 h post-injection)?
A: 66.2%

Q: What about the “renal uptake relative to 99mTc-RGD-Lys-(Arg11)CCMSH” value ([5]; 0.5 h post-injection) of the same molecule?
A: 1.84 times

Q: What about the “tumor uptake relative to 99mTc-RGD-Lys-(Arg11)CCMSH” value ([5]; 0.5 h post-injection) of the same molecule?
A: 1.51 times

Q: What about the “effect of L-lysine co-injection on tumor uptake” value ([5]; 2 h post-injection) of the same molecule?
A: without affecting the tumor uptake

Q: And the “liver uptake as %” value ([5]; 2 h post-injection)?
A: 61.9%

Q: And the “renal uptake relative to 99mTc-RGD-Lys-(Arg11)CCMSH” value ([5]; 2 h post-injection)?
A: 1.39 times

Q: What about the “tumor uptake relative to 99mTc-RGD-Lys-(Arg11)CCMSH” value ([5]; 2 h post-injection) of the same molecule?
A: 1.34 times

Q: And the “renal uptake relative to 99mTc-RGD-Lys-(Arg11)CCMSH” value ([5]; 4 h post-injection)?
A: 1.42 times

Q: And the “tumor uptake relative to 99mTc-RGD-Lys-(Arg11)CCMSH” value ([5]; 4 h post-injection)?
A: 1.43 times

Q: And the “liver uptake as %” value ([5]; 24 h post-injection)?
A: 72.3%

Q: And the “decrease of renal uptake by L-lysine co-injection” value ([5]; L-lysine co-injection)?
A: 46%

Q: What about the “effect of peptide blockade co-injection on renal uptake” value ([5]; NDP-MSH co-injection) of the same molecule?
A: did not reduce the renal uptake

Q: What about the “visualization of melanoma lesions by SPECT/CT” value [6] of the same molecule?
A: visualized clearly; also recorded: clearly visualized

Q: And the “remained intact in urine” value [7]?
A: Approximately 82%

Q: And the “transformed to a more lipophilic metabolite” value ([7]; urine)?
A: 18%

Q: Which IC50 ([1]; from ref. 23, read-out: MC1 receptor binding affinity) does the source give for “RGD-Lys-(Arg^11)CCMSH [cyclic RGD {Arg-Gly-Asp-DTyr-Asp} motif conjugated to [Cys3,4,10, D-Phe7, Arg11]α-MSH3-13 peptide via a lysine linker, reference compound]” here?
A: 2 nM
